We go through two compounds from patent US11459313B2, “Aziridinyl and amino dimeric naphthoquinone compounds and use for acute myeloid leukemia” (University of Maryland, Baltimore, priority 2016, dated 2022).

“Also recorded” adds a separate entry of the source. Read-outs that look alike come from different tables or passages of the source.

One test relates to MOLM-14 cells. The test can be described thus: WST-1 cell proliferation assay, MOLM-14. The note with it: Homo sapiens. Type of test: cell-based, human. Here is the method: (§1) Cell lines were seeded into 96-well plates the afternoon prior to treatment. Approximately 18 hours later, bis and mono-aziridine dimeric naphthoquinone compounds were semi-serially diluted in dimethyl sulfoxide (DMSO) and then growth medium, and added to cells. Plates were incubated for 72 hours prior to addition of WST-1 (Promega®). Plates were read after 4 additional hours of incubation at 37° C. using a Bio-Tek Synergy® HT plate reader (Bio-Tek®). Data were analyzed and graphed using GraphPad Prism® Software (Graph Pad®).
(§2) Primary AML cells from patients and cell lines were seeded into 96-well plates the afternoon prior to treatment. Eighteen hours later, amino-dimeric naphthoquinone Compounds 106, 101, and 114 were semi-serially diluted in dimethyl sulfoxide (DMSO) and then growth medium, and added to the cells. In order to quantitate proliferation of metabolically active cells, plates were incubated for 72 hours for cell lines and 48 hours for primary AML cells prior to addition of water-soluble tetrazolium (WST-1) (Clontech®). Plates were read after four additional hours of incubation at 37° C. using a Bio-Tek Synergy® HT plate reader (Bio-Tele®). Data were analyzed and graphed using GraphPad Prism® Software (GraphPad®). IC50 was defined as the concentration that decreases viable cell numbers by 50%. IC50 values were calculated as mean±standard deviation from at least two independent experiments. If availability of primary blasts was limited, the IC50 was obtained from a single experiment.
To investigate antiproliferative activity of amino-dimeric naphthoquinones against AML cells, an MTT-like cell proliferation assay was performed in the AML cell lines using WST-1 (water soluble tetrazolium salts; Promega®). MOLM-14 and AML-D cells, as well as normal hematopoietic bone marrow cells from a healthy donor, were exposed to a range of concentrations of Compound 101. Human leukemia cells were cultured in the presence of the compound for 72 hours (48 hours for primary cells) and WST-1 reagent was then added. The cells then were monitored for cell growth or the number of cells proliferating and the IC50 calculated. The IC50 is the concentration at which 50% of the cells are not proliferating compared to control cells treated with vehicle. See FIG. 2A, FIG. 2B, and FIG. 2C for representative graphs of these IC50 determinations.

The next test relates to THP-1 cells. Put plainly: WST-1 cell proliferation assay, THP-1. Type of test: cell-based. The note with it: Homo sapiens. Here is the method:
as §1, §2

The subject of test [1] is MV4-11 cells. The test can be described thus: WST-1 cell proliferation assay, MV4-11. Type of test: cell-based, human. The note with it: Homo sapiens, cell proliferation. Here is the method:
as §1, §2

The test system of the next test is AML blasts. Put plainly: γH2AX foci in treated AML blasts. The class given is cell-based.
The next test addresses IDO-1 (Homo sapiens, UniProt P14902). The test can be described thus: IDO1 activity assay. The class given is biochemical. The text has this: (§3) Methods were as described and according to known methods.
For test [2], the system named is MV4-11 cells. Put plainly: Cell survival assay (trypan blue exclusion), MV4-11. The class given is cell-based, human. Here is the method:
MOLM-.14 and THP-1 cells were seeded in 96-well plates and treated with DMSO, mono- and bis-aziridinyl dimeric naphthoquinone compounds, or dimethylamine dimeric naphthoquinone Compound 114 as previously described. Cells were incubated for 72 hours, and then counted using trypan blue exclusion on the Countess® automated cell counter (Life Technologies®). Cell counts were performed in duplicates, and the averages were graphed using GraphPad Prism® software (GraphPad®).
Cell survival was determined using trypan blue exclusion as described above, in which cells are plated and the following day treated similarly to the proliferation assay. Compound 102 (also referred to here as “66”) was effective in decreasing cell number at increasing concentrations of compound in MV4-11 cells.

For test [3], the system named is AML cells. The test can be described thus: Clonogenicity of AML cells. Type of test: cell-based, human. Here is the method: MOLM-14 and THP-1 were treated with either DMSO control or mono-aziridine dimeric naphthoquinone or bis-aziridinyl dimeric naphthoquinone compounds at concentrations of 0.1, 1, 10 and 100 μM (micromolar) for 24 hours. The cells then were washed with growth medium and resuspended in growth medium and methylcellulose with or without DMSO or the treatment compounds. After 7 or 13 days (MOLM-14 or THP-1, respectively), treatment was terminated by addition of 1.0 mg/mL, iodonitrotetrazolium chloride (INT; Sigma Aldrich®) and read 24 hours later with an automated colony counter (Symbiosis®). Data were analyzed and graphed using GraphPad Prism® software.
(§4) Two AML cell lines (MV4-11 & MOLM14) were treated with increasing doses of the clinically used naphthoquinones, atovaquone and vitamin K, as well as with Compound 102; and IC50 curves were generated with respect to cell proliferation as described above.

Test [4] concerns MV4-11 cells. Put plainly: Cellular reactive oxygen species (H2DCFA), MV4-11. The class given is cell-based, human. Here is the method: MOLM-14 and THP-1 cells in logarithmic growth phase were centrifuged and resuspended in PBS at one million cells per milliliter (mL) of medium. Cells were preloaded with 2′,7′-dichlorodihydrofluorescein diacetate (H2DCFA, Life Technologies®) at a final concentration of 2 μM and incubated at 37° C. in the dark for 25 minutes. Cells were centrifuged and resuspended at one million per mL in phenol red-free RPMI plus 10% FBS and incubated at 37° C. in the dark for 25 minutes. Treatments were prepared at 2× concentrations of […] in complete phenol red-free RPMI and added to each well to yield 1× concentrations of 20, 10, 2, or 0.5 μM. Cells were incubated in the dark at 37° C. and measurement of ROS was performed with a Bio-tek® Synergy HT plate reader at various time points post treatment.
as §4
The amount of reactive oxygen species (ROS) that cells produced upon treatment with Compound 102 then was examined. See results in FIG. 9B. The cells were loaded with the ROS dye H2DCFA and subsequently plated into 96-well plates. […] The relative fluorescence units (RFU) were read at various time points. […]

The subject of test [5] is AML cells. The test can be described thus: Cell proliferation assays, AML cells (lines not given singly). Type of test: cell-based, human. The note with it: MV4-11 and MOLM14, proliferation IC50. Here is the method:
as §2, §4

For test [6], the target named is tryptophan-2,3-dioxygenase (TDO) (Homo sapiens, UniProt P48775). The test can be described thus: TDO activity. The class given is biochemical.
From the text: as §3

The target in a further test is T1, IDO-2 (Homo sapiens, UniProt Q6ZQW0).
T1 sequence (Q6ZQW0 1-407): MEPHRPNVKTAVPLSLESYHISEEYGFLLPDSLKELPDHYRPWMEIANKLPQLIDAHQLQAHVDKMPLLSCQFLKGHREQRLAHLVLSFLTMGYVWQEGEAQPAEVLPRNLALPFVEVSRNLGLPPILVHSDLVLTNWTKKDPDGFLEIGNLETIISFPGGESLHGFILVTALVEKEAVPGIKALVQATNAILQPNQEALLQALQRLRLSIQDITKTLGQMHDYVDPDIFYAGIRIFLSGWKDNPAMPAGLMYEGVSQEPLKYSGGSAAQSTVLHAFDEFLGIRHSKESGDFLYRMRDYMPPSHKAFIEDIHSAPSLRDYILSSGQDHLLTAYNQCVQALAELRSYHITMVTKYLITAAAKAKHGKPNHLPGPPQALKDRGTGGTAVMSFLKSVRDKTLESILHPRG
Put plainly: IDO-2 activity. The class given is biochemical.
From the text: as §3

Chain of IDO-1 (P14902 whole entry, species assumed): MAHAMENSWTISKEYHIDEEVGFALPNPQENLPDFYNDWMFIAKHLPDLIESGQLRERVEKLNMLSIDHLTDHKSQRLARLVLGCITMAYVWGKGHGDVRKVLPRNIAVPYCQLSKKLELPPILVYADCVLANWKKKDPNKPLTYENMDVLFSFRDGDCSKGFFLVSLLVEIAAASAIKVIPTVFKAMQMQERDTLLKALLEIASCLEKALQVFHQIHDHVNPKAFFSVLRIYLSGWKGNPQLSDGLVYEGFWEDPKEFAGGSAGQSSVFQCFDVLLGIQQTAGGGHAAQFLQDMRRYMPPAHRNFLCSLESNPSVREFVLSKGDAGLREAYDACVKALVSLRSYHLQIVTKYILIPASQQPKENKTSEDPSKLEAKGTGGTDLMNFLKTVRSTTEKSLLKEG
Chain of tryptophan-2,3-dioxygenase (TDO) (P48775 whole entry, species assumed): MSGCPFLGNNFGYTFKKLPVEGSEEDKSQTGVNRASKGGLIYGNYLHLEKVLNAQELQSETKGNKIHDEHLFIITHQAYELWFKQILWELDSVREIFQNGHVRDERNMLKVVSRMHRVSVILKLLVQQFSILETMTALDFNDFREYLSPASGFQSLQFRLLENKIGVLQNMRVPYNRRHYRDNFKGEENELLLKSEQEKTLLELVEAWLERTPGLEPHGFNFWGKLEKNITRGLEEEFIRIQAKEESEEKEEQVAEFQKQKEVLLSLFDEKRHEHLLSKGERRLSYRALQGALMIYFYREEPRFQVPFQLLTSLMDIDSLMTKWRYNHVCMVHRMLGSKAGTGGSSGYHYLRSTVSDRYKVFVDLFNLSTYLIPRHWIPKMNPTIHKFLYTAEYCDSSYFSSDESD

Regarding `O=C1C(Cl)=C(C2=C(N3CC3)C(=O)c3ccccc3C2=O)C(=O)c2ccccc21` [Compound 106, 3-(aziridin-1-yl)-3′-chloro-[2,2′-binaphthalene]-1,1′ 4,4′-tetrone], the IC50 with MOLM-14 cells (MOLM-14, read-out: IC50 MOLM-14) was 3.9 ± 1 µM; in the test with MOLM-14 cells (MOLM-14, read-out: IC50 MOLM-14 (n)), 3.9 ± 1 µM; in the test on THP-1 cells (THP-1, read-out: IC50 THP1 (n)), 7700 ± 1300 nM; with THP-1 cells (THP-1, read-out: IC50 THP-1) it was 7700 ± 1300 nM.
On to `O=C1C(NCCO)=C(C2=C(NCCO)C(=O)c3ccccc3C2=O)C(=O)c2ccccc21` [Compound 102, 3,3′-[(2-hydroxyethyl)amino]-2,2′-binaphthalenyl-1,1′,4,4′-tetrone], for which the half-maximal inhibitory concentration (IC50) turned out to be 0.16 ± 0.01 µM with MOLM-14 cells (MOLM-14, Table 2, cell proliferation, read-out: MOLM14 IC50); 0.16 ± 0.01 µM with MOLM-14 cells (MOLM-14, Table 3, cell proliferation, read-out: MOLM14 IC50); 0.16 µM in the test with MOLM-14 cells (MOLM-14, Table 7, cell proliferation, read-out: IC50 (μM) MOLM-14); 0.2 ± 0.2 µM in the test on MV4-11 cells [1] (MV4-11, Table 2, read-out: MV411 IC50); 0.2 ± 0.2 µM with MV4-11 cells [1] (MV4-11, Table 3, read-out: MV411 IC50); 0.2 µM in the test with MV4-11 cells [1] (MV4-11, Table 7, read-out: IC50 (μM) MV411). For the same compound, in the test on AML blasts, the “DNA damage (γH2AX foci)” value is given as “concomitant increase in DNA damage”. At IDO-1, the inhibition at 1 µM stood at 37%. For the same compound, at IDO-1, the inhibition at 10 µM was found to be 79%. For the same compound, the “cell survival, MV4-11” value in the test with MV4-11 cells [2] is on record as “dose-dependent reduction in cell survival”. Besides, in the test on AML cells [3], the “inhibition of clonogenicity of AML cells” value is listed as “effectively inhibited clonogenicity of AML cells in a dose-dependent manner; also recorded: potent (nanomolar) inhibition of colony formation”. Besides, in the test on MV4-11 cells [4] (Example 13, cells not named in the block, 2-6 hours), the ROS production result is on record as “dose-dependent increase in ROS production”. For the same compound, the “ROS levels, MV4-11” value with MV4-11 cells [4] (at IC50 concentration) was “ROS levels significantly peaked after 2 hours and returned to baseline within 24 hours”. Also, the “potency relative to other naphthoquinones (atovaquone, vitamin K) against AML cells” value with AML cells [5] is listed as 25-30 fold. In test [6], the “inhibition of TDO” value is “not”. Also, the “inhibition of IDO-2” value against IDO-2 is recorded as “not”.
